Data reported in US7312358B2, “Pharmaceutically active sulfanilide derivatives” (Laboratoires Serono SA, priority 2000, dated 2007).

Key:
[1] = molecular target: T1, hOT receptor (Homo sapiens, UniProt P30559); assay: In vitro competition binding assay on hOT receptor with scintillating proximity assay; details: membranes from HEK293EBNA cells expressing hOT receptor; radiolabel [125I]-OVTA; SPA; read-out: Binding Affinity Human OT-R Ki
T1 construct: expressed in transfected cells; host or cells: HEK293EBNA cells (membranes)
T1 sequence (P30559 1-389): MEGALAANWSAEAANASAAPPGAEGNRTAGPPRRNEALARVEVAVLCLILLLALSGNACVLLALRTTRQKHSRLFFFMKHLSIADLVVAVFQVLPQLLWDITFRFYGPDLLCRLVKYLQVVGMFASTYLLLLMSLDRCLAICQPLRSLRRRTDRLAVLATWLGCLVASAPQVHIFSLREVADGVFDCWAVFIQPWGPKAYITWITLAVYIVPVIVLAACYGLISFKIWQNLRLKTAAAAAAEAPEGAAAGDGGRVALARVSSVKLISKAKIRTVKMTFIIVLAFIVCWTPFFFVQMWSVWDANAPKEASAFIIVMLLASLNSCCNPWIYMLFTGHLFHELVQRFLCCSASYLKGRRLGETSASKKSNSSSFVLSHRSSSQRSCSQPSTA
Experimental: a) In Vitro Competition Binding Assay on hOT Receptor with Scintillating Proximity Assay (Pharmaceutical Manufacturing International, 1992, p. 49-53 by Cook, N. D. et al)
This assays allows to determine the affinity of the test compounds for the OT receptor. Membranes from HEK293EBNA cells expressing the hOT receptor were resuspended in buffer containing 50 mM Tris-HCl, pH 7.4, 5 mM MgCl2 and 0.1% BSA (w/v). The membranes (2-4 μg) were mixed with 0.1 mg wheat-germ aglutinin (WGA) SPA bead (type A) and 0.2 nM of the radiolabel [^125I]-OVTA (OVTA being […] and is an analogue of OT for competition binding experiments). Non-specific binding was determined in the presence of 1 μM Oxytocin. The total assay volume was 100 μl. The plates (Corning (D NBS plate) were incubated at room temperature for 30 min and counted on a Mibrobeta plate counter. The tests compounds were used in concentrations of 30 μM, 10 μM, 1 μM, 300 nM, 100 nM, 10 nM, 1 nM, 100 pM, 10 pM. The competition binding data were analysed using the iterative, nonlinear, curve-fitting program, “Prism”.
The binding affinities to the oxytocin receptor of the sulfanilide derivatives claimed in the formula I were assessed using the above described in vitro biological assay. The values refer to the binding affinity (IC50; μM) of the example compounds according to formula I to the Oxytocin receptor. From the values shown in Table 1 it can be derived that said test compounds according to formula I do show a significant binding to the oxytocin receptor.

Row | Compound | Ki [1] [nM] | melting point
1 | O=C(CN(c1ccc(Br)cc1)S(=O)(=O)c1ccccc1)Nc1cccc2cccnc12 [2-[Benzenesulfonyl-(4-bromo-phenyl)-amino]-N-quinolin-8-yl-acetamide] | 192 | 
2 | CCOc1ccc(S(=O)(=O)N(CC(=O)N/N=C2/C(=O)Nc3ccc(S(=O)(=O)O)cc32)c2ccc(C)cc2)cc1 [Example 1, 3-[({[(4-ethoxyphenyl)sulfonyl]-4-methylanilino}acetyl)hydrazono]-2-oxo-2,3-dihydro-H-indole-5-sulfonic Acid] |  | 318 to 319 °C (dec.)
3 | CCOc1ccc(S(=O)(=O)N(CC(=O)N/N=C2/C(=O)Nc3ccccc32)c2ccccc2)cc1 [Example 2, 4-ethoxy-N-{2-oxo-2-[2-(2-oxo-1,2-dihydro-3H-indol-3-ylidene)hydrazino]-ethyl}-N-phenylbenzenesulfonamide] |  | 135.5 to 136.5 °C
4 | CCOc1ccc(S(=O)(=O)N(CC(=O)N/N=C2/C(=O)Nc3ccc([N+](=O)[O-])cc32)c2ccccc2)cc1 [Example 3, 4-ethoxy-N-{2-[2-(5-nitro-2-oxo-1,2-dihydro-3H-indol-3-ylidene)hydrazino]-2-oxoethyl}-N-phenylbenzenesulfonamide] |  | 252 to 253 °C
5 | CCOc1ccc(S(=O)(=O)N(CC(=O)N/N=C2/C(=O)Nc3ccc(I)cc32)c2ccccc2)cc1 [Example 4, 4-ethoxy-N-{2-[2-(5-iodo-2-oxo-1,2-dihydro-3H-indol-3-ylidene)hydrazino]-2-oxoethyl}-N-phenylbenzenesulfonamide] |  | 233 to 234 °C
6 | Cc1ccc(N(CC(=O)N/N=C2/C(=O)Nc3ccccc32)S(=O)(=O)c2cccc3ccccc23)cc1 [Example 6, N-(4-methylphenyl)-N-{2-oxo-2-[2-(2-oxo-1,2-dihydro-3H-indol-3-ylidene)hydrazino]ethyl}-1-naphthalenesulfonamide] |  | 138 to 139 °C
7 | Cc1ccc(N(CC(=O)N/N=C2/C(=O)Nc3ccccc32)S(=O)(=O)c2ccc(Cl)cc2)cc1 [Example 8, 4-chloro-N-(4-methylphenyl)-N-{2-oxo-2-[2-(2-oxo-1,2-dihydro-3H-indol-3-ylidene)hydrazino]ethyl}benzenesulfonamide] |  | 234 to 235 °C
8 | COc1ccc(S(=O)(=O)N(CC(=O)N/N=C2/C(=O)Nc3ccccc32)c2ccc(C)cc2)cc1 [Example 9, 4-methoxy-N-(4-methylphenyl)-N-{2-oxo-2-[2-(2-oxo-1,2-dihydro-3H-indol-3-ylidene)hydrazino]ethyl}benzenesulfonamide] |  | 134 to 135 °C
9 | Cc1ccc(N(CC(=O)N/N=C2/C(=O)Nc3ccccc32)S(=O)(=O)c2ccc(C)cc2)cc1 [Example 10, 4-methyl-N-(4-methylphenyl)-N-{2-oxo-2-[2-(2-oxo-1,2-dihydro-3H-indol-3-ylidene)hydrazino]ethyl}benzenesulfonamide] |  | 243 to 244 °C
10 | CCOc1ccc(S(=O)(=O)N(CC(=O)N/N=C\c2ccccc2F)c2ccc(C)cc2)cc1 [Example 12, 4-ethoxy-N-{2-[2-(2-fluorobenzylidene)hydrazino]-2-oxoethyl}-N-(4-methylphenyl)benzenesulfonamide] |  | 183 to 184 °C
11 | Cc1ccc(N(CC(=O)N/N=C2/C(=O)Nc3ccccc32)S(=O)(=O)c2ccc(-c3ccccc3)cc2)cc1 [Example 13, N-(4-methylphenyl)-N-{2-oxo-2-[2-(2-oxo-1.2-dihydro-3H-indol-3-ylidene)hydrazino]ethyl}[1,1′-biphenyl]-4-sulfonamide] |  | 246 to 247 °C
12 | Cc1ccc(N(CC(=O)N/N=C2/C(=O)Nc3ccccc32)S(=O)(=O)c2ccc(Oc3ccccc3)cc2)cc1 [Example 14, N-(4-methylphenyl)-N-{2-oxo-2-[2-(2-oxo-1,2-dihydro-3H-indol-3-ylidene)hydrazino]ethyl}-4-phenoxybenzenesulfonamide] |  | 245 to 246 °C
13 | CCOc1ccc(S(=O)(=O)N(CC(=O)N/N=C\c2ccccc2O)c2ccc(C)cc2)cc1 [Example 15, 4-ethoxy-N-{2-[2-(2-hydroxybenzylidene)hydrazino]-2-oxoethyl}-N-(4-methylphenyl)benzenesulfonamide] | 1.2 | 
14 | CCOc1ccc(S(=O)(=O)N(CC(=O)N/N=C\c2ccc(N(CC)CC)cc2O)c2ccc(C)cc2)cc1 [Example 16, N-(2-{2-[4-(diethylamino)-2-hydroxybenzylidene]hydrazino}-2-oxoethyl)-4-ethoxy-N-(4-methylphenyl)benzenesulfonamide] |  | 227 to 228 °C
15 | COc1ccc(-c2ccc(S(=O)(=O)N(CC(=O)N/N=C3\C(=O)Nc4ccccc43)c3ccc(C)cc3)cc2)cc1 [Example 19, 4′-methoxy-N-(4-methylphenyl)-N-{2-oxo-2-[2-(2-oxo-1,2-dihydro-3H-indol-3-ylidene)hydrazino]ethyl}[1,1′-biphenyl]-4-sulfonamide] |  | 235 to 236 °C
16 | O=C(CN(c1ccc(Cl)cc1)S(=O)(=O)c1cccs1)N/N=C1\C(=O)Nc2ccccc21 [Example 36, N-(4-chlorophenyl)-N-{2-oxo-2-[(2Z)-2-(2-oxo-1,2-dihydro-3H-indol-3-ylidene)hydrazino]ethyl}-2-thiophenesulfonamide] | 29.3 | 
17 | CCOc1ccc(S(=O)(=O)N(CC(=O)N/N=C2\C(=O)Nc3ccncc32)c2ccc(Cl)cc2)cc1 [Example 50, N-(4-chlorophenyl)-4-ethoxy-N-{2-oxo-2-[(2Z)-2-(2-oxo-1,2-dihydro-3H-pyrrolo[3,2-c]pyridin-3-ylidene)hydrazino]ethyl}benzenesulfonamide] | 57.1 | 
18 | CN(C)CCOc1ccc(S(=O)(=O)N(CC(=O)N/N=C2\C(=O)Nc3ccccc32)c2ccc(Cl)cc2)cc1 [Example 57, N-(4-chlorophenyl)-4-[2-(dimethylamino)ethoxy]-N-{2-oxo-2-[(2Z)-2-(2-oxo-1.2-dihydro-3H-indol-3-ylidene)hydrazino]ethyl}benzenesulfonamide] | 1.8 | 
19 | Cc1ccc(N(CC(=O)N/N=C2\C(=O)Nc3ccccc32)S(=O)(=O)c2ccc(OCCCN(C)C)cc2)cc1 [Example 59, 4-[3-(Dimethylamino)propoxy]-N-(4-methylphenyl)-N-{2-oxo-2-[(2Z)-2-(2-oxo-1,2-dihydro-3H-indol-3-ylidene)hydrazino]ethyl}benzenesulfonamide] | 0.3 | 
20 | O=C(CN(c1ccc(Cl)cc1)S(=O)(=O)c1ccc(OCc2cccs2)cc1)N/N=C1\C(=O)Nc2ccccc21 [Example 60, N-(4-chlorophenyl)-N-{2-oxo-2-[(2Z)-2-(2-oxo-1,2-dihydro-3H-indol-3-ylidene)hydrazino]ethyl}-4-(2-thienylmethoxy)benzenesulfonamide] | 53.3 | 
21 | CN(C)CCCOc1ccc(S(=O)(=O)N(CC(=O)N/N=C2\C(=O)Nc3ccncc32)c2ccc(Cl)cc2)cc1 [Example 68, N-(4-chlorophenyl)-4-[3-(dimethylamino)propoxy]-N-{2-oxo-2-[(2Z)-2-(2-oxo-1,2-dihydro-3H-pyrrolo[3,2-c]pyridin-3-ylidene)hydrazino]ethyl}benzenesulfonamide] | 78.1 | 
22 | COc1ccc(N(CC(=O)N2Cc3ccccc3CC2CC(N)=O)S(=O)(=O)c2ccc(OC)c(OC)c2)cc1 (centres unmarked) [Example 82, 2-[2-({[(3,4-Dimethoxyphenyl)sulfonyl]-4-methoxyanilino}acetyl)-1,2,3,4-tetrahydro-3-isoquinolinyl]acetamide] | 465 | 
23 | CCOc1ccc(S(=O)(=O)N(CC(=O)N2Cc3ccccc3CC2CC(N)=O)c2ccc(C)cc2)cc1 (centres unmarked) [Example 89, 2-[2-({[(4-Ethoxyphenyl)sulfonyl]-4-methylanilino}acetyl)-1,2,3,4-tetrahydro-3-isoguinolinyl]acetamide] | 498 | 
24 | CCOc1ccc(S(=O)(=O)N(CC(=O)N2Cc3ccccc3CC2C(N)=O)c2ccc(OC)cc2)cc1 (centres unmarked) [Example 91, 2-({[(4-Ethoxyphenyl)sulfonyl]-4-methoxyanilino}acetyl)-1.2,3,4-tetrahydro-3-isoquinolinecarboxamide] | 316 | 
25 | Cc1ccc(N(CC(=O)N2CCc3ccccc3C2)S(=O)(=O)c2ccccc2)cc1 [N-[2-(3,4-Dihydro-1H-isoquinolin-2-yl)-2-oxo-ethyl]-N-p-tolyl-benzenesulfonamide] | 472 | 
26 | N-(4-chlorophenyl)-4-ethoxy-N-{2-[(2E)-2-(2-hydroxybenzylidene)hydrazino]-2-oxoethyl}benzenesulfonamide [Example 38] | 14.8 | 
